Reference: patent publication US9309222B2, “Phenyl linked quinolinyl modulators of RORγt” (Janssen Pharmaceutica NV, priority 2012, dated 2016)
pIC50, pKd: −log10 of the molar value. Counter-ions that a name gives are not always drawn.

Tests used:
[1] = molecular target: T1, human RORγt LBD (Homo sapiens, UniProt P51449); experiment: RORγt reporter assay (GAL4-RORγt LBD luciferase in HEK293T cells); type: cell-based; details: for pIC50: HEK293T cells, 24 hours compound treatment; for inhibition at 6 µM: HEK-293T, read-out: RORγt reporter Assay, % inhibition @ 6 μM, HEK293T cells, 6 μM compound
T1 construct: expressed in transfected cells
T1 sequence (P51449 258-518): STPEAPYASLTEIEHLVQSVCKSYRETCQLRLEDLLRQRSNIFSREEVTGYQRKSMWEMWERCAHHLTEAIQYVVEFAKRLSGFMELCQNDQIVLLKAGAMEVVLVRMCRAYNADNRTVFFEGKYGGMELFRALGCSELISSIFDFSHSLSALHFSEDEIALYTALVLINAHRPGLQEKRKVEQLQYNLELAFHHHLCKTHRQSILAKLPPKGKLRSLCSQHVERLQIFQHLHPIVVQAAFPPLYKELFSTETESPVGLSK
Text: A reporter assay was used to test functional activity of RORγt modulatory compounds on transcriptional activation driven by the RORγt LBD. Cells used in the assay were co-transfected with two constructs. The first construct, pBIND-RORγt LBD, contained the wild type human RORγt LBD fused to the DNA binding domain of the GAL4 protein. The second construct, pGL4.31 (Promega Cat no. C935A), contained multiple GAL4 responsive DNA elements upstream of firefly luciferase. […] The mutant construct was called pBIND-RORγt-AF2.
The pBIND vector contains the GAL4 DNA Binding Domain (GAL4 DBD) and the renilla luciferase gene under control of the SV40 promoter. Renilla luciferase expression serves as a control for transfection efficiency and cell viability.
The reporter assay was performed by transiently transfecting HEK293T cells with 5 ng of pBIND-RORγt LBD or pBIND-RORγt LBD-AF2 and 5 μg pGL4.31 (Promega Cat no. C935A) using Fugene 6 (Invitrogen Cat no. E2691) at a 1:6 ratio of DNA:Fugene 6 in a T-75 flask in which cells were at least 80% confluent. Twenty four hours after bulk transfection, cells were plated into 96-well plates at 50,000 cells/well in phenol-red free DMEM containing 5% Lipid Reduced FCS and Pen/Strep. Six hours after plating, cells were treated with compounds for 24 hours. Media was removed and cells were lysed with 50 μL 1× Glo Lysis Buffer (Promega). Dual Glo Luciferase Reagent (50 μL/well) was then added and firefly luciferase luminescence was read on an Envision after a ten minute incubation. Finally, Stop and Glo reagent (50 μL/well) was added and renilla luciferase luminescence was read on an Envision after a ten minute incubation. To calculate the effect of compounds on RORγt activity, the ratio of firefly to renilla luciferase was determined and plotted against compound concentration. Agonist compounds increase RORγt-driven luciferase expression, and antagonist or inverse agonist compounds decrease luciferase expression.

[2] = molecular target: T2, human RORγt ligand binding domain (RORγt LBD) (Homo sapiens, UniProt P51449); experiment: RORγt ThermoFluor assay (thermal shift, ligand binding affinity); details: estimated from concentration response of thermal shift
T2 construct: His-tag (N); TurboTEV protease cleavage site (ENLYFQG) (N); made in house; host or cells: E. coli (pHIS1, modified pET vector)
T2 sequence (P51449 with tags, fused parts or gaps): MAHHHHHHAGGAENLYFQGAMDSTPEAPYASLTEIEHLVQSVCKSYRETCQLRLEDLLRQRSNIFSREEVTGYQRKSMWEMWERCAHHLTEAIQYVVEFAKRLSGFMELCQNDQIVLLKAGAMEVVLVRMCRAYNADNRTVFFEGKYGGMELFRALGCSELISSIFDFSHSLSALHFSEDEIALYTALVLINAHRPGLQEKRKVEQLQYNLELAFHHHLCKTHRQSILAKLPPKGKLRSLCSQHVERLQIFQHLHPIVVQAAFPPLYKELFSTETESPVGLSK
Procedure: This approach is applicable to a wide variety of systems, and rigorous in theoretical interpretation through quantitation of equilibrium binding constants (KD).
The shift in the melting point described as a ΔTm is proportional to the concentration and affinity of the ligand.
RORγt ThermoFluor® Assay Construct
Protein and compound solutions are dispensed into black 384-well polypropylene PCR microplates (Abgene) and overlayed with silicone oil (1 μL Fluka, type DC 200) to prevent evaporation.
Fluorescence was measured by continuous illumination with UV light (Hamamatsu LC6) supplied via fiber optic and filtered through a band-pass filter (380-400 nm; >6 OD cutoff). Fluorescence emission of the entire 384-well plate was detected by measuring light intensity using a CCD camera (Sensys, Roper Scientific) filtered to detect 500±25 nm, resulting in simultaneous and independent readings of all 384 wells. Images were collected at each temperature, and the sum of the pixel intensity in a given area of the assay plate was recorded versus temperature. Reference wells contained RORγt without compounds, and the assay conditions were as follows: • 0.065 mg/mL RORγt • 60 μM 1,8-ANS • 100 mM Hepes, pH 7.0 • 10 mM NaCl • 2.5 mM GSH • 0.002% Tween-20
Project compounds were arranged in a pre-dosed mother plate (Greiner Bio-one) wherein compounds are serially diluted in 100% DMSO by 1:2 from a high concentration of 10 mM over 12 columns within a series (column 12 is a reference well containing DMSO, no compound).
The compounds were robotically dispensed directly into assay plates (1×=[…]) using a Hummingbird capillary liquid handling instrument (Digilab). Following compound dispense, protein and dye in buffer was added to achieve the final assay volume of 3 μL, followed by 1 μL of silicone oil.

Compound	pIC50 [1]	inhibition at 6 µM [1] [%]	pKd [2]
CN(C)c1ccc(C(O)(c2ccc3nc(Cl)c(-c4ccccc4)c(Cl)c3c2)c2cncn2C)cn1 (stereo not drawn) [Example 11, (2,4-Dichloro-3-phenylquinolin-6-yl)[6-(dimethylamino)pyridin-3-yl](1-methyl-1H-imidazol-5-yl)methanol•TFA]	5.38	75	5.96
CN1CCN(c2nc3ccc(C(O)(c4ccncc4)c4cncn4C)cc3c(Cl)c2-c2ccccc2)CC1 (stereo not drawn) [Example 19, [4-Chloro-2-(4-methylpiperazin-1-yl)-3-phenylquinolin-6-yl](1-methyl-1H-imidazol-5-yl)pyridin-4-ylmethanol•TFA]	< 5.22	13	5.04
COCOc1ccc(C(O)(c2cccnc2)c2ccc3nc(Cl)c(-c4ccccc4)c(Cl)c3c2)cc1 (stereo not drawn) [Example 23, (2,4-Dichloro-3-phenylquinolin-6-yl)[4-(methoxymethoxy)phenyl]pyridin-3-ylmethanol]	6.10	89	6.64
OC(c1ccncc1)(c1ccc2nc(Cl)c(-c3ccccc3)c(Cl)c2c1)c1ccccn1 (stereo not drawn) [Example 27, (2,4-Dichloro-3-phenylquinolin-6-yl)(pyridin-2-yl)pyridin-4-ylmethanol•TFA]	5.38	75	5.08
OC(c1cccnc1)(c1ccc2nc(Cl)c(-c3ccccc3)c(Cl)c2c1)c1ccccc1Cl (stereo not drawn) [Example 28, (2-Chlorophenyl)(2,4-dichloro-3-phenylquinolin-6-yl)pyridin-3-ylmethanol•TFA]	~6.70	99	6.64
Cn1cncc1C(N)(c1ccc2nc(Cl)c(-c3ccccc3)c(Cl)c2c1)c1ccccn1 (stereo not drawn) [Example 31, 1-(2,4-Dichloro-3-phenylquinolin-6-yl)-1-(1-methyl-1H-imidazol-5-yl)-1-pyridin-2-ylmethanamine•HCl]	5.68	67	5.25
CN(C)c1c(-c2ccccc2)c(Cl)nc2ccc(C(O)(c3ccc(Cl)cc3)c3cccnc3)cc12 (stereo not drawn) [Example 33, [2-Chloro-4-(dimethylamino)-3-phenylquinolin-6-yl](4-chlorophenyl)pyridin-3-ylmethanol•TFA]	5.70	78	5.48
CN(C)c1c(-c2ccccc2)c(Cl)nc2ccc(C(O)(c3ccc(F)cc3)c3cccnc3)cc12 (stereo not drawn) [Example 39, [2-Chloro-4-(dimethylamino)-3-phenylquinolin-6-yl](4-fluorophenyl)pyridin-3-ylmethanol•TFA]	5.80	86	5.60
CN(C)c1c(-c2ccccc2)c(Cl)nc2ccc(C(O)(c3cccnc3)c3cccc(Cl)c3)cc12 (stereo not drawn) [Example 42, [2-Chloro-4-(dimethylamino)-3-phenylquinolin-6-yl](3-chlorophenyl)pyridin-3-ylmethanol•TFA]	~5.70	91	5.85
CN(C)c1nc2ccc(C(O)(c3cccnc3)c3ccccn3)cc2c(Cl)c1-c1ccccc1 (stereo not drawn) [Example 43, [4-Chloro-2-(dimethylamino)-3-phenylquinolin-6-yl](pyridin-2-yl)pyridin-3-ylmethanol•TFA]	5.96	99	5.80
CN(C)c1c(-c2ccccc2)c(Cl)nc2ccc(C(O)(c3cccnc3)c3ccccc3Cl)cc12 (stereo not drawn) [Example 45, [2-Chloro-4-(dimethylamino)-3-phenylquinolin-6-yl](2-chlorophenyl)pyridin-3-ylmethanol•TFA]	5.80	75	5.54
Cc1cc(C(O)(c2ccc3nc(Cl)c(-c4ccccc4)c(Cl)c3c2)c2nccn2C)cc(Cl)n1 (stereo not drawn) [Example 46, (2-Chloro-6-methylpyridin-4-yl)(2,4-dichloro-3-phenylquinolin-6-yl)(1-methyl-1H-imidazol-2-yl)methanol]	5.70	94	5.40
Cn1cncc1C(O)(c1cccnc1)c1ccc2ncc(-c3ccccc3)c(Cl)c2c1 (stereo not drawn) [Example 51, (4-Chloro-3-phenylquinolin-6-yl)(1-methyl-1H-imidazol-5-yl)pyridin-3-ylmethanol•TFA]	~5.40	75	5.74
OC(c1cccnc1)(c1cccc(Cl)c1)c1ccc2ncc(-c3ccccc3)c(Cl)c2c1 (stereo not drawn) [Example 52, (3-Chlorophenyl)(4-chloro-3-phenylquinolin-6-yl)pyridin-3-ylmethanol]	~5.52	80	5.89
Cn1cncc1C(O)(c1ccncc1)c1ccc2ncc(-c3ccccc3)c(Cl)c2c1 (stereo not drawn) [Example 53, (4-Chloro-3-phenylquinolin-6-yl)(1-methyl-1H-imidazol-5-yl)pyridin-4-ylmethanol•TFA]	~5.70	61	6.02
COc1ccc(C(O)(c2cccnc2)c2ccc3nc(Cl)c(-c4ccccc4)c(Cl)c3c2)cc1 (stereo not drawn) [Example 55, (2,4-Dichloro-3-phenylquinolin-6-yl)(4-methoxyphenyl)(pyridin-3-yl)methanol]	6.09	92	6.48
COc1cccc(C(O)(c2cccnc2)c2ccc3ncc(-c4ccccc4)c(Cl)c3c2)c1 (stereo not drawn) [Example 58, (4-Chloro-3-phenylquinolin-6-yl)(3-methoxyphenyl)pyridin-3-ylmethanol]	~5.22	40	5.66
COc1ccc(C(O)(c2cccnc2)c2ccc3ncc(-c4ccccc4)c(Cl)c3c2)cc1 (stereo not drawn) [Example 59, (4-Chloro-3-phenylquinolin-6-yl)(4-methoxyphenyl)pyridin-3-ylmethanol]	~5.22	37	5.36
OC(c1ccc(Cl)nc1)(c1cccc(Cl)c1)c1ccc2ncc(-c3ccccc3)c(Cl)c2c1 (stereo not drawn) [Example 60, (3-Chlorophenyl)(4-chloro-3-phenylquinolin-6-yl)(6-chloropyridin-3-yl)methanol]	~6.00	86	5.89
OC(c1ccc(Cl)nc1)(c1cccc(F)c1)c1ccc2ncc(-c3ccccc3)c(Cl)c2c1 (stereo not drawn) [Example 61, (4-Chloro-3-phenylquinolin-6-yl)(6-chloropyridin-3-yl)(3-fluorophenyl)methanol]	5.70	80	5.74
